# ± gives the expanded uncertainty stated by the source.
# Key:
# [1] = for molar entropy: 101.33 kPa, Small (less than 1 g) adiabatic calorimetry
# [2] = Molar enthalpy of transition or fusion; settings: Crystal; Adiabatic calorimetry
smiles,measurement,setting,value
CCCCCCCC/C=C/CCCCCCCC(=O)OCC(COC(=O)CCCCCCC/C=C/CCCCCCCC)OC(=O)CCCCCCC/C=C/CCCCCCCC [trielaidin],molar entropy,"[1]; 20 K, Crystal",26.56 ± 8.9 J/K/mol
same,molar entropy,"[1]; 20 K, Metastable crystal",61.98 ± 8.9 J/K/mol
same,molar entropy,"[1]; 25 K, Crystal",44.27 ± 8.9 J/K/mol
same,molar entropy,"[1]; 25 K, Metastable crystal",88.54 ± 8.9 J/K/mol
same,molar entropy,"[1]; 30 K, Crystal",70.83 ± 8.9 J/K/mol
same,molar entropy,"[1]; 30 K, Metastable crystal",115.11 ± 8.9 J/K/mol
same,molar entropy,"[1]; 35 K, Crystal",97.4 ± 8.9 J/K/mol
same,molar entropy,"[1]; 35 K, Metastable crystal",141.67 ± 8.9 J/K/mol
same,molar entropy,"[1]; 40 K, Crystal",132.81 ± 8.9 J/K/mol
same,molar entropy,"[1]; 40 K, Metastable crystal",177.09 ± 8.9 J/K/mol
same,molar entropy,"[1]; 45 K, Crystal",168.23 ± 8.9 J/K/mol
same,molar entropy,"[1]; 45 K, Metastable crystal",212.5 ± 8.9 J/K/mol
same,molar entropy,"[1]; 50 K, Crystal",194.8 ± 8.9 J/K/mol
same,molar entropy,"[1]; 50 K, Metastable crystal",239.07 ± 8.9 J/K/mol
same,molar entropy,"[1]; 55 K, Crystal",230.21 ± 8.9 J/K/mol
same,molar entropy,"[1]; 55 K, Metastable crystal",274.48 ± 8.9 J/K/mol
same,molar entropy,"[1]; 60 K, Crystal",265.63 ± 8.9 J/K/mol
same,molar entropy,"[1]; 60 K, Metastable crystal",309.9 ± 8.9 J/K/mol
same,molar entropy,"[1]; 65 K, Crystal",301.05 ± 8.9 J/K/mol
same,molar entropy,"[1]; 65 K, Metastable crystal",345.32 ± 8.9 J/K/mol
same,molar entropy,"[1]; 70 K, Crystal",327.61 ± 8.9 J/K/mol
same,molar entropy,"[1]; 70 K, Metastable crystal",380.74 ± 8.9 J/K/mol
same,molar entropy,"[1]; 75 K, Crystal",363.03 ± 8.9 J/K/mol
same,molar entropy,"[1]; 75 K, Metastable crystal",416.15 ± 18 J/K/mol
same,molar entropy,"[1]; 80 K, Crystal",398.44 ± 8.9 J/K/mol
same,molar entropy,"[1]; 80 K, Metastable crystal",451.57 ± 18 J/K/mol
same,molar entropy,"[1]; 85 K, Crystal",433.86 ± 18 J/K/mol
same,molar entropy,"[1]; 85 K, Metastable crystal",486.99 ± 18 J/K/mol
same,molar entropy,"[1]; 90 K, Crystal",460.42 ± 18 J/K/mol
same,molar entropy,"[1]; 90 K, Metastable crystal",513.55 ± 18 J/K/mol
same,molar entropy,"[1]; 95 K, Crystal",495.84 ± 18 J/K/mol
same,molar entropy,"[1]; 95 K, Metastable crystal",548.97 ± 18 J/K/mol
same,molar entropy,"[1]; 100 K, Crystal",531.26 ± 18 J/K/mol
same,molar entropy,"[1]; 100 K, Metastable crystal",584.39 ± 18 J/K/mol
same,molar entropy,"[1]; 105 K, Crystal",557.82 ± 18 J/K/mol
same,molar entropy,"[1]; 105 K, Metastable crystal",619.8 ± 18 J/K/mol
same,molar entropy,"[1]; 110 K, Crystal",593.24 ± 18 J/K/mol
same,molar entropy,"[1]; 110 K, Metastable crystal",646.37 ± 18 J/K/mol
same,molar entropy,"[1]; 120 K, Crystal",646.37 ± 18 J/K/mol
same,molar entropy,"[1]; 120 K, Metastable crystal",708.35 ± 18 J/K/mol
same,molar entropy,"[1]; 130 K, Crystal",708.35 ± 18 J/K/mol
same,molar entropy,"[1]; 130 K, Metastable crystal",770.33 ± 27 J/K/mol
same,molar entropy,"[1]; 140 K, Crystal",770.33 ± 27 J/K/mol
same,molar entropy,"[1]; 140 K, Metastable crystal",832.31 ± 27 J/K/mol
same,molar entropy,"[1]; 150 K, Crystal",823.45 ± 27 J/K/mol
same,molar entropy,"[1]; 150 K, Metastable crystal",894.29 ± 27 J/K/mol
same,molar entropy,"[1]; 160 K, Crystal",876.58 ± 27 J/K/mol
same,molar entropy,"[1]; 160 K, Metastable crystal",947.41 ± 27 J/K/mol
same,molar entropy,"[1]; 170 K, Crystal",929.7 ± 27 J/K/mol
same,molar entropy,"[1]; 170 K, Metastable crystal",1009.4 ± 35 J/K/mol
same,molar entropy,"[1]; 180 K, Crystal",982.83 ± 27 J/K/mol
same,molar entropy,"[1]; 180 K, Metastable crystal",1062.5 ± 35 J/K/mol
same,molar entropy,"[1]; 190 K, Crystal",1036 ± 35 J/K/mol
same,molar entropy,"[1]; 190 K, Metastable crystal",1124.5 ± 35 J/K/mol
same,molar entropy,"[1]; 200 K, Crystal",1089.1 ± 35 J/K/mol
same,molar entropy,"[1]; 200 K, Metastable crystal",1177.6 ± 35 J/K/mol
same,molar entropy,"[1]; 210 K, Crystal",1142.2 ± 35 J/K/mol
same,molar entropy,"[1]; 210 K, Metastable crystal",1239.6 ± 35 J/K/mol
same,molar entropy,"[1]; 220 K, Crystal",1186.5 ± 35 J/K/mol
same,molar entropy,"[1]; 220 K, Metastable crystal",1301.6 ± 35 J/K/mol
same,molar entropy,"[1]; 230 K, Crystal",1239.6 ± 35 J/K/mol
same,molar entropy,"[1]; 230 K, Metastable crystal",1363.6 ± 44 J/K/mol
same,molar entropy,"[1]; 240 K, Crystal",1292.7 ± 35 J/K/mol
same,molar entropy,"[1]; 240 K, Metastable crystal",1425.5 ± 44 J/K/mol
same,molar entropy,"[1]; 250 K, Crystal",1337 ± 44 J/K/mol
same,molar entropy,"[1]; 250 K, Metastable crystal",1487.5 ± 44 J/K/mol
same,molar entropy,"[1]; 260 K, Crystal",1390.1 ± 44 J/K/mol
same,molar entropy,"[1]; 260 K, Metastable crystal",1549.5 ± 44 J/K/mol
same,molar entropy,"[1]; 270 K, Crystal",1443.3 ± 44 J/K/mol
same,molar entropy,"[1]; 270 K, Metastable crystal",1611.5 ± 53 J/K/mol
same,molar entropy,"[1]; 280 K, Crystal",1496.4 ± 44 J/K/mol
same,molar entropy,"[1]; 280 K, Metastable crystal",1673.5 ± 53 J/K/mol
same,molar entropy,"[1]; 288 K, Crystal",1531.8 ± 44 J/K/mol
same,molar entropy,"[1]; 288 K, Metastable crystal",1726.6 ± 53 J/K/mol
same,molar entropy,"[1]; 290 K, Crystal",1549.5 ± 44 J/K/mol
same,molar entropy,"[1]; 298.15 K, Crystal",1593.8 ± 44 J/K/mol
same,molar entropy,"[1]; 300 K, Crystal",1602.6 ± 53 J/K/mol
same,molar entropy,"[1]; 310 K, Crystal",1655.8 ± 53 J/K/mol
same,molar entropy,"[1]; 314.83 K, Crystal",1673.5 ± 53 J/K/mol
same,molar entropy,"[1]; 314.83 K, Liquid",2204.7 ± 71 J/K/mol
same,molar entropy,"[1]; 320 K, Liquid",2213.6 ± 71 J/K/mol
same,molar entropy,"[1]; 330 K, Liquid",2275.6 ± 71 J/K/mol
same,Triple point temperature,"[1]; Crystal, Adiabatic calorimetry",314.83 ± 1 K
same,Molar enthalpy of transition or fusion,[2],37.5 ± 0.765 kcal/mol
